Measured values taken from patent US4656173A, “Antipsychotic benzisothiazole S-oxide compound” (Bristol-Myers Company, priority 1985, dated 1987).

Key:
[1] = Metabolic interconversion in rats; assay type: in vivo
Source text: (§1) Currently, there is insufficient information available to confirm that compound I is a metabolite of BMY 13859. […] Such interconversions have been previously reported, as for sulindac, supra.

[2] = Blood plasma concentration after dosing of rats; assay type: in vivo; conditions: 30 minutes after dosing
Source text: In this regard, compound I represents an antipsychotic agent giving an improved neuropharmacological profile compared with BMY 13859.

[3] = Metabolic interconversion in humans; assay type: in vivo; conditions: high pressure liquid chromatography
Source text: as §1

[4] = molecular target: α-adrenergic (α1) receptor binding site; assay: In vitro receptor binding, α-adrenergic (α1); conditions: predictive correlate: postural hypotension, palpitations
[5] = molecular target: Dopaminergic (D2) receptor binding site (Homo sapiens, UniProt P14416); assay: In vitro receptor binding, dopaminergic (D2); conditions: predictive correlate: antipsychotic efficacy, EPS liability
Sequence of Dopaminergic (D2) receptor binding site (P14416 whole entry): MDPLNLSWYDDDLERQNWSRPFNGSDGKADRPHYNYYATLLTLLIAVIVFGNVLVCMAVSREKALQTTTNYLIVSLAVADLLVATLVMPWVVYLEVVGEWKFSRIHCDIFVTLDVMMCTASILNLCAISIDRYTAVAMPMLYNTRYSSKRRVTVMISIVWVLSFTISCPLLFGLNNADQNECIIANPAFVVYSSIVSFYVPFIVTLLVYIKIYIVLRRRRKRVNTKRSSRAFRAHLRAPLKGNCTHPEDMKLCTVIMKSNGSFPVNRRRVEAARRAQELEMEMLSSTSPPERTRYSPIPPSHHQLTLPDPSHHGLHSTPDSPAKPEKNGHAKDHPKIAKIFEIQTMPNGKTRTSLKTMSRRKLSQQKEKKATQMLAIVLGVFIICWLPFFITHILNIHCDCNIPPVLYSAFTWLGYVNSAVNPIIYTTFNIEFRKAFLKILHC

[6] = molecular target: Muscarinic receptor binding site; assay: In vitro receptor binding, muscarinic; conditions: predictive correlate: dry mouth, constipation
[7] = molecular target: Serotoninergic (S2) receptor binding site (Homo sapiens, UniProt P28223); assay: In vitro receptor binding, serotoninergic (S2); conditions: predictive correlate: lack of EPS (?)
Sequence of Serotoninergic (S2) receptor binding site (P28223 whole entry): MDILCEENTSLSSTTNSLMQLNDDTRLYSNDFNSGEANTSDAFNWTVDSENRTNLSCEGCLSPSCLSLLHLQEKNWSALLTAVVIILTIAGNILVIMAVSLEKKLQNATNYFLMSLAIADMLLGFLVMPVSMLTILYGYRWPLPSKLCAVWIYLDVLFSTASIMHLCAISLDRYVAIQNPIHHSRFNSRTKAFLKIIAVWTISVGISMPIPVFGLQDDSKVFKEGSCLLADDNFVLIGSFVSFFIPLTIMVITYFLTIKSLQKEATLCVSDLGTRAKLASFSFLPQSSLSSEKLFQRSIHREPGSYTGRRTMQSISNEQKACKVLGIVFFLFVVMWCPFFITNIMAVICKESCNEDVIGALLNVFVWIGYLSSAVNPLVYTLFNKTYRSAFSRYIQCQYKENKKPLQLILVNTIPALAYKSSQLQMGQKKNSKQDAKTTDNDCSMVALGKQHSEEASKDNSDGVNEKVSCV

[8] = tested on: apomorphine-induced stereotypy (dopaminergic activity in rats); assay: Inhibition of Apomorphine-Induced (APO) Stereotypy; assay type: in vivo
Source text: 2. Inhibition of Apomorphine-Induced (APO) Stereotypy --an assessment of blockade of dopaminergic activity in rats as measured by attenuation of the behavioral syndrome caused by the dopamine agonist, apomorphine. cf: Janssen, et al., Arzneimittel. Forsch., 17, 841 (1966).

[9] = tested on: drug-induced catalepsy in rats; assay: Catalepsy (induction); assay type: in vivo; conditions: oral
Source text: (§2) 3. Catalepsy--drug-induced catalepsy in rats is predictive of potential extrapyramidal symptoms (EPS) in man. cf: Costall, et al, Psychopharmacologia, 34, 233-241 (1974); Berkson, J. Amer. Statist. Assoc., 48, 565-599 (1953).

Catalepsy (induction) = assay type: in vivo; conditions: rat, in vivo; oral; rats; read-out: oral ED50 in inducing catalepsy
Source text: as §2

[10] = tested on: avoidance response to electrical shock in trained fasted rats; assay: Conditioned Avoidance Response (CAR); assay type: in vivo
Source text: 1. Conditioned Avoidance Response (CAR)--measure of a drug's tranquilizing activity as determined by its attenuation of avoidance response to electrical shock in trained fasted rats. cf: Albert, Pharmacologist, 4, 152 (1962); Wu, et al, J. Med. Chem., 12, 876-881 (1969).

[11] = Antipsychotic activity testing of dioxide (II); conditions: in vivo
[12] = Kwan and Heimlich, Internat. J. of Pharmaceutics, 6, (1980) 237-241, cited for biotransformations; cited from earlier work

SMILES | concentration of administered agent in blood plasma versus the other (interconverted) agent [2] | IC50 [4] [nM] | IC50 [5] [nM] | IC50 [6] [nM] | IC50 [7] [nM] | other results
O=C1CC2(CCCC2)CC(=O)N1CCCCN1CCN(c2nsc3ccccc23)CC1 [BMY 13859, reference compound] | several-fold higher in concentration | 50 | 10 | > 1000 | 1 | compound formed after administration of BMY 13859 ([1]; high pressure liquid chromatography): a compound which co-elutes (high pressure liquid chromatography) with compound I is formed; compound formed after administration of BMY 13859 [3]: a compound which co-elutes (high pressure liquid chromatography) with compound I is formed
O=C1CC2(CCCC2)CC(=O)N1CCCCN1CCN(c2n[s+]([O-])c3ccccc23)CC1 (stereo not shown) [Compound I, 8-[4-[4-(1-oxo-1,2-benzisothiazol-3-yl)-1-piperazinyl]butyl]-8-azaspiro[4.5]decane-7,9-dione] | several-fold higher in concentration | 330 | > 1000 | > 1000 | 300 | compound formed after administration of compound I [1]: authentic BMY 13859 is formed in rats; activity in the APO stereotypy test [8]: potent activity; activity in inducing catalepsy [9]: inactive; ED50 (Catalepsy (induction)): > 30 mg/kg; activity in the CAR test [10]: potent activity
O=C1CC2(CCCC2)CC(=O)N1CCCCN1CCN(C2=NS(=O)(=O)c3ccccc32)CC1 [II] |  |  |  |  |  | antipsychotic activity [11]: devoid of antipsychotic activity
CC1=C(CC(=O)O)c2cc(F)ccc2C1=Cc1ccc([S+](C)[O-])cc1 (stereo not shown) [sulindac] |  |  |  |  |  | pharmacological activity of sulindac [12]: appears to reside only in the sulfide metabolite
